No end group written: not given here.
Experiments:
K. pneumoniae = experiment: microbe, parasite or virus in culture; type: cell-based, Klebsiella pneumoniae
Description: To assess the combined effect of peptides and antibiotics, a checkerboard test was performed. An inoculum of K. pneumoniae at 2 × 10^5 CFU/mL was used for the assay. Serial dilutions of peptides and meropenem were executed, and 10 μL of peptide and antibiotic were added into the 96-well plate, individually and/or in combination. The plate was incubated for 24 h to 37°C and the combinatorial effect was calculated as an index of fractional inhibitory concentration (FICI) with the following formula ([Giugliano et al., 2023]).
FICI=MICmeropenem in combination/MICmeropenem+MICpeptide in combination/MICpeptide
• FICI ≤ 0.5, synergy. • 0.5 < FICI ≤ 1.0, partial synergy. • […], no interaction. • FICI > 4.0, antagonism.

S. thyphimurium = experiment: Broth microdilution MIC/MBC; type: cell-based; details: for MIC: broth microdilution, 1 × 10^5 CFU/mL, concentration inhibiting 95% bacterial growth, triplicate; for MBC: lowest concentration killing 99.9% of the bacterial load after 18 h at 37°C on MHA
[1] = test system: HaCaT cell line (human keratinocytes cells); experiment: MTT cytotoxicity on HaCaT cells; type: cell-based; details: 100 μM, 24 h
Description: Peptides cytotoxicity was evaluated on the HaCaT cell line (human keratinocytes cells) obtained from the CLS–Cell Lines Service (Eppelheim, Germany). The cell monolayer was treated with different peptide concentrations from 3 to 100 μM for 24 h. Then, methylthiazolyldiphenyl-tetrazolium bromide (MTT) (Sigma-Aldrich, St. Louis, MO, USA) assay was performed as already reported ([Ambrosino et al., 2023]). Untreated cells represented positive control (CTRL+), while cells treated with 100% DMSO represented negative control (CTRL−). Absorbance was recorded at 570 nm, and cell viability was calculated with Equation 1:
(1) %ofcellviability=absorbanceoftreatedcells/absorbanceofuntreatedcellsx100

K. pneumoniae ATCC 10031 = experiment: Broth microdilution MIC/MBC; type: cell-based, Klebsiella pneumoniae; details: reference strain ATCC 10031; for MIC: broth microdilution, 1 × 10^5 CFU/mL, concentration inhibiting 95% bacterial growth, triplicate; for MBC: lowest concentration killing 99.9% of the bacterial load after 18 h at 37°C on MHA
Description: (§1) Antibacterial activity of peptides was conducted against a panel of bacterial strains both Gram-positive (Staphylococcus aureus ATCC 6538, Enterococcus faecalis ATCC 29212, Listeria monocytogenes MB 677), and Gram-negative (E. coli ATCC 11229, K. pneumoniae ATCC 10031, Pseudomonas aeruginosa O1, Burkordelia cepacea LGM16656). The analysis has been extended to clinical isolates of K. pneumoniae carbapenemases producers isolated and characterized at the Microbiology Laboratory of the University Hospital “Luigi Vanvitelli,” Naples, Italy, using a BD Phoenix M50 instrument (Becton, Dickinson and Company, Franklin Lakes, NJ, USA) and listed in Table 1. The test was carried out as reported elsewhere ([Folliero et al., 2022]). The final bacterial concentration inoculated in the 96-well plate was 1 × 10^5 CFU/mL. Vancomycin (5 μg/mL) and meropenem (10 μg/mL) (Burlington, MA, USA) were used as positive control (CTRL+) against Gram-positive and Gram-negative bacteria, respectively.
(§2) The concentration of peptides inhibiting 95% bacterial growth was recorded as MIC. After setting the MIC value, 50 μL were taken from the 2MIC, 1MIC, and ½ MIC and spotted on MHA. The plates were incubated for 18 h at 37°C. The number of colony-forming units was calculated, and MBC was recorded as the lowest concentration of peptide capable of killing 99.9% of the bacterial load after 18 h of incubation.

[2] = test system: Pseudomonas aeruginosa O1; experiment: Broth microdilution MIC/MBC; type: cell-based; details: 1 × 10^5 CFU/mL, concentration inhibiting 95% bacterial growth, triplicate
Description: as §1, §2

[3] = test system: Enterococcus faecalis ATCC 29212; experiment: Broth microdilution MIC/MBC; type: cell-based; details: for MIC: broth microdilution, 1 × 10^5 CFU/mL, concentration inhibiting 95% bacterial growth, triplicate; for MBC: lowest concentration killing 99.9% of the bacterial load after 18 h at 37°C on MHA
Description: as §1, §2

[4] = test system: Staphylococcus aureus ATCC 6538; experiment: Broth microdilution MIC/MBC; type: cell-based; details: for MIC: broth microdilution, 1 × 10^5 CFU/mL, concentration inhibiting 95% bacterial growth, triplicate; for MBC: lowest concentration killing 99.9% of the bacterial load after 18 h at 37°C on MHA
Description: as §1, §2

E. coli ATCC 11229 = experiment: Broth microdilution MIC/MBC; type: cell-based; details: for MIC: broth microdilution, 1 × 10^5 CFU/mL, concentration inhibiting 95% bacterial growth, triplicate; for MBC: lowest concentration killing 99.9% of the bacterial load after 18 h at 37°C on MHA
Description: as §1, §2

[5] = test system: Burkordelia cepacea LGM16656 (B. cepacia); experiment: Broth microdilution MIC/MBC; type: cell-based; details: for MIC: broth microdilution, 1 × 10^5 CFU/mL, concentration inhibiting 95% bacterial growth, triplicate
Description: as §1, §2

[6] = test system: Listeria monocytogenes MB 677; experiment: Broth microdilution MIC/MBC; type: cell-based; details: for MIC: broth microdilution, 1 × 10^5 CFU/mL, concentration inhibiting 95% bacterial growth, triplicate; for MBC: lowest concentration killing 99.9% of the bacterial load after 18 h at 37°C on MHA
Description: as §1, §2

[7] = Stability of peptides in serum; type: in vitro ADME; details: 2.0 mg/mL peptide, 37°C; for remaining at 16 h, 2 mg/mL: RP-HPLC peak area vs t0 (100%), mean of duplicates, read-out: Peptide remaining in solution after 16 h in serum
Description: Peptide stability in serum was performed as previously reported ([Russo et al., 2021]). Briefly, peptides were diluted in serum to a final concentration of 2.0 mg/mL and incubated at 37°C. Aliquots of each peptide taken at different times up to 16 h were analyzed by RP-HPLC on an Aeris PEPTIDE XB-C18 column (2.1 × 100 mm, 3.6 μm). Peptide concentrations in solution were determined from RP-HPLC peak areas compared to peak areas obtained at t0 (set as 100%).

[8] = test system: K. pneumoniae 1746 (VIM, class B); experiment: Broth microdilution MIC/MBC, clinical isolate; type: cell-based, Klebsiella pneumoniae; details: clinical isolate 1746, VIM; for MIC: rectal swab, broth microdilution, 95% growth inhibition
Description: as §1, §2

[9] = test system: several strains of K. pneumoniae KPC-producers; experiment: MIC/MBC summarised over the clinical isolates; type: cell-based, Klebsiella pneumoniae; details: summary over strains 311, 1746, 1745, 1711
Description: as §1, §2

[10] = test system: K. pneumoniae 1745 (KPC, class A); experiment: Broth microdilution MIC/MBC, clinical isolate; type: cell-based, Klebsiella pneumoniae; details: clinical isolate 1745, KPC; for MIC: ulcer, broth microdilution, 95% growth inhibition; for MBC: killing 99.9% after 18 h
Description: as §1, §2

[11] = test system: K. pneumoniae 311 (OXA-48, class D); experiment: Broth microdilution MIC/MBC, clinical isolate; type: cell-based, Klebsiella pneumoniae
Description: as §1, §2

[12] = test system: K. pneumoniae 1711 (KPC, class A); experiment: Broth microdilution MIC/MBC, clinical isolate; type: cell-based, Klebsiella pneumoniae; details: clinical isolate 1711, KPC; for MIC: rectal swab, broth microdilution, 95% growth inhibition
Description: as §1, §2

Compound | MIC (S. thyphimurium) [µM] | Cell viability [1] | MIC (K. pneumoniae ATCC 10031) [µM] | MIC [2] [µM] | MIC [3] [µM] | MBC [3] [µM] | MIC [4] [µM] | MIC (E. coli ATCC 11229) [µM] | MIC [5] [µM] | MIC [6] [µM] | remaining at 16 h, 2 mg/mL [7] [%] | MIC [8] [µM] | MBC (S. thyphimurium) [µM] | MBC (K. pneumoniae ATCC 10031) [µM] | MBC [4] [µM] | MBC (E. coli ATCC 11229) [µM] | MBC [6] [µM] | MIC [10] [µM] | MBC [10] [µM] | MIC [12] [µM] | further results
C[C@@H](O)[C@H]1C(=O)N2C(C(=O)O)=C(S[C@@H]3CN[C@H](C(=O)N(C)C)C3)[C@H](C)[C@H]12 [meropenem] |  |  |  |  |  |  |  |  |  |  |  |  |  |  |  |  |  |  |  |  | MIC (K. pneumoniae; Klebsiella pneumoniae, checkerboard, 2 × 10^5 CFU/mL, 24 h, 37°C, read-out: MIC of meropenem alone): 5 µg/mL; MIC of meropenem in combination (K. pneumoniae; combined with 3 μM of pantinin 1, checkerboard, 24 h, 37°C): 0.62 µg/mL
FLSTIWNGIKSLL-NH2 [Pantinin 3] | 50 | 10% | 25 | 50 | 25 | 25 | 12.5 | 50 | 50 | 25 | ~80 | 50 |  |  |  |  |  |  |  |  | 
GILGKLWEGFKSIV-NH2 [Pantinin 1] | 50 | approximately 70% | 6.25 | 50 | 12.5 | 25 | 6.25 | 12.5 | 25 | 6.25 |  | 25 | 50 | 12.5 | 6.25 | 25 | 12.5 | 25 | 25 | 25 | FICI (K. pneumoniae; pantinin 1 (3 μM) with meropenem (0.62 μg/mL)): 0.624; MIC against the tested clinical K. pneumoniae strains [9]: 25 µM; MBC ([5]; lowest concentration killing 99.9% of the bacterial load after 18 h at 37°C on MHA): 25 µM; Stability in serum in the time interval analysed ([7]; up to 16 h, RP-HPLC peak area vs t0, duplicates): stable; MIC ([11]; clinical isolate 311, OXA-48, rectal swab, broth microdilution, 95% growth inhibition): 25 µM; MBC ([11]; clinical isolate 311, OXA-48, killing 99.9% after 18 h): 25 µM; MBC ([12]; killing 99.9% after 18 h): 25 µM
IFGAIWKGISSLL-NH2 [Pantinin 2] | 50 | 25% | 12.5 | 50 | 12.5 | 12.5 | 12.5 | 25 | 50 | 6.25 | ~70 | 25 | 50 | 12.5 | 12.5 | 25 | 12.5 | 50 | 50 | 50 | MBC ([8]; killing 99.9% after 18 h): 50 µM
